# According to US7785875B2, “Polynucleotide encoding HCV epitopes which can bind to various HLA supertypes, immunogenic composition comprising same and method of inducing an HCV-specific immune response using same” (priority 2004, dated 2010):
# Test system: PBMCs derived from HCV-infected patients
# Test: Ex vivo IFN-γ ELISPOT assay
# Assay type: cell-based, human
# Conditions: for responsiveness of positive reaction: positive = 30 or more SFCs per 2×10^5 PBMCs; for number of HLA types the epitope was positive to: of 9 HLA types found in the patients (A2, A24, A26, A3, B7, B15, B27, B44, B51)
Substance,responsiveness of positive reaction (HLA-A2 type patients),responsiveness of positive reaction (HLA-A3 type patients),responsiveness of positive reaction (HLA-A24 type patients),responsiveness of positive reaction (HLA-A26 type patients),Number of patients showing positive response/Number of patients having specific MHC type (HLA-A molecule A2),Number of patients showing positive response/Number of patients having specific MHC type (HLA-A molecule A3),Number of patients showing positive response/Number of patients having specific MHC type (HLA-A molecule A24),Number of patients showing positive response/Number of patients having specific MHC type (HLA-A molecule A26),responsiveness of positive reaction (HLA-B7 type patients),responsiveness of positive reaction (HLA-B15 type patients),responsiveness of positive reaction (HLA-B27 type patients),responsiveness of positive reaction (HLA-B44 type patients),responsiveness of positive reaction (HLA-B51 type patients),Number of patients showing positive response/Number of patients having specific MHC type (HLA-B molecule B7),Number of patients showing positive response/Number of patients having specific MHC type (HLA-B molecule B15),Number of patients showing positive response/Number of patients having specific MHC type (HLA-B molecule B27),Number of patients showing positive response/Number of patients having specific MHC type (HLA-B molecule B44),Number of patients showing positive response/Number of patients having specific MHC type (HLA-B molecule B51),number of HLA types the epitope was positive to
"L2: HCV epitope peptide of 9 amino acids, E2, region 632 (YVGGVEHRL) [Peptide L2]",15.3%,13.3%,12.5%,0%,4/26,4/30,3/24,0/1,5.8%,22.2%,25.0%,11.1%,20.0%,1/17,2/9,1/4,1/9,2/10,8
"C4: HCV epitope peptide of 9 amino acids, NS2, region 894 (AILGPLMVF) [Peptide C4]",26.3%,23.5%,29.1%,0%,7/26,7/30,7/24,0/1,29.1%,44.4%,0%,22.2%,50.0%,5/17,4/9,0/4,2/9,5/10,7
"C1: HCV epitope peptide of 9 amino acids, NS3, region 1338 (TAGARLVVL) [Peptide C1]",11.5%,10.0%,4.18%,0%,3/26,3/30,1/24,0/1,11.7%,0%,0%,22.2%,20.0%,2/17,0/9,0/4,2/9,2/10,6
"L1: HCV epitope peptide of 9 amino acids, Core, region 118 (NLGKVIDTL) [Peptide L1]",11.5%,10.0%,8.3%,0%,3/26,3/30,2/24,0/1,11.7%,0%,0%,33.3%,10.0%,2/17,0/9,0/4,3/9,1/10,6
"L6: HCV epitope peptide of 9 amino acids, E2, region 628 (KVRMYVGGV) [Peptide L6]",15.3%,10.0%,8.3%,0%,4/26,3/30,2/24,0/1,11.7%,11.1%,0%,11.1%,30.0%,2/17,1/9,0/4,1/9,3/10,7
"L7: HCV epitope peptide of 9 amino acids, NS2, region 883 (ELIFDITKL) [Peptide L7]",19.2%,10.0%,12.5%,0%,5/26,3/30,3/24,0/1,17.6%,22.2%,25.0%,11.1%,20.0%,3/17,2/9,1/4,1/9,2/10,8
